From the supplement of paper PMC10307832

Legend:
Assay in all cases: relative viability (nuclei count vs DMSO), 5 days (fraction); higher = more cells survive
CX-5461 + Foretinib = compound: Cc1cnc(CNC(=O)c2c(=O)c3ccc(N4CCCN(C)CC4)nc3n3c2sc2ccccc23)cn1 [CX-5461] + COc1cc2c(Oc3ccc(NC(=O)C4(C(=O)Nc5ccc(F)cc5)CC4)cc3F)ccnc2cc1OCCCN1CCOCC1 [Foretinib] (partner 0.25 µM)
How it was run: (§1)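 Relative viability equals treated-well nuclei counts divided by vehicle-well nuclei counts. Counts came from 4× images of lung cancer cell lines grown in 1536-well plates for 5 days after pin-tool dosing on the day after seeding. Dosing used one drug alone or a fixed anchor-drug dose plus five library-drug doses (not always all listed) in √10 steps, and values are medians of duplicate plates.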

CX-5461 + Crizotinib = compound: Cc1cnc(CNC(=O)c2c(=O)c3ccc(N4CCCN(C)CC4)nc3n3c2sc2ccccc23)cn1 [CX-5461] + C[C@@H](Oc1cc(-c2cnn(C3CCNCC3)c2)cnc1N)c1c(Cl)ccc(F)c1Cl [Crizotinib] (partner 1 µM)
How it was run: as §1

CX-5461 + Linsitinib = compound: Cc1cnc(CNC(=O)c2c(=O)c3ccc(N4CCCN(C)CC4)nc3n3c2sc2ccccc23)cn1 [CX-5461] + C[C@]1(O)C[C@@H](c2nc(-c3ccc4ccc(-c5ccccc5)nc4c3)c3c(N)nccn32)C1 [Linsitinib] (partner 1 µM)
How it was run: as §1

IMD-0354 + Pictilisib = compound: O=C(Nc1cc(C(F)(F)F)cc(C(F)(F)F)c1)c1cc(Cl)ccc1O [IMD-0354] + CS(=O)(=O)N1CCN(Cc2cc3nc(-c4cccc5[nH]ncc45)nc(N4CCOCC4)c3s2)CC1 [Pictilisib] (partner 1 µM)
How it was run: as §1

Cell Line	relative viability (CX-5461 + Foretinib; first compound 0.01 µM)	relative viability (CX-5461 + Foretinib; first compound 0.03162 µM)	relative viability (CX-5461 + Foretinib; first compound 0.1 µM)	relative viability (CX-5461 + Foretinib; first compound 1 µM)	relative viability (CX-5461 + Crizotinib; first compound 0.01 µM)	relative viability (CX-5461 + Crizotinib; first compound 0.03162 µM)	relative viability (CX-5461 + Crizotinib; first compound 0.3162 µM)	relative viability (CX-5461 + Crizotinib; first compound 1 µM)	relative viability (CX-5461 + Linsitinib; first compound 0.01 µM)	relative viability (CX-5461 + Linsitinib; first compound 0.03162 µM)	relative viability (CX-5461 + Linsitinib; first compound 0.3162 µM)	relative viability (CX-5461 + Linsitinib; first compound 1 µM)	relative viability (IMD-0354 + Pictilisib; first compound 0.04 µM)	relative viability (IMD-0354 + Pictilisib; first compound 0.1265 µM)	relative viability (IMD-0354 + Pictilisib; first compound 0.4 µM)	relative viability (IMD-0354 + Pictilisib; first compound 1.265 µM)	relative viability (IMD-0354 + Pictilisib; first compound 4 µM)	relative viability (CX-5461 + Foretinib; first compound 0.3162 µM)	relative viability (CX-5461 + Crizotinib; first compound 0.1 µM)	relative viability (CX-5461 + Linsitinib; first compound 0.1 µM)
ABC-1	0.909	0.91	0.651	0.585	1.07	1.57	0.57	0.323	1.11	0.84	0.817	0.494	0.753	0.643	0.447	0.25	0.263	–	–	–
NCI-H358	0.671	0.666	0.791	0.336	0.524	0.57	0.26	0.174	0.817	0.748	0.314	0.304	0.319	0.31	0.263	0.241	0.22	0.236	0.365	0.345
NCI-H2342	0.98	1.1	1.07	1.08	–	–	–	–	–	–	–	–	–	–	–	–	–	1.03	–	–
NCI-H1792	–	–	–	–	0.957	0.979	0.978	0.913	0.54	0.58	0.565	0.545	0.298	0.225	0.622	0.203	0.204	–	0.949	0.485
ChaGo-K-1	0.927	0.981	0.917	0.883	1.17	1.21	0.341	0.79	–	–	–	–	1.11	1.22	0.495	0.216	0.301	0.597	1.06	–
NCI-H1395	0.959	0.916	0.884	0.737	–	–	–	–	1.06	1.15	0.612	0.583	0.592	0.589	0.555	0.346	0.348	0.988	–	1.06
HCC-44	–	–	–	–	0.796	0.832	0.782	0.801	0.734	0.681	0.676	0.644	0.634	0.534	0.415	0.12	0.156	–	0.823	0.685
NCI-H2170	0.964	1.01	0.944	1	1.17	1.29	1.18	1.09	–	–	–	–	0.283	0.304	0.308	0.284	0.277	1.07	1.28	–
NCI-H1793	0.8	0.734	0.665	0.802	–	–	–	–	1.05	0.913	0.913	0.752	0.357	0.319	0.235	0.172	0.206	–	–	0.941
SW 900	0.967	0.968	1.07	0.811	–	–	–	–	–	–	–	–	–	–	–	–	–	1.08	–	–
